In US20100047371A1, “COMPOSITIONS AND METHODS FOR ORAL CANCER CHEMOPREVENTION USING BERRY PREPARATIONS AND EXTRACTS” (priority 2006, published 2010):

Experiments:
[1] = tested on: Human Oral Mucosa Explant Tissues; experiment: Effect of final gel pH on anthocyanin uptake into human oral mucosa explant tissues; type: in vitro ADME; details: 10% w/w FBR gel
Protocol: Anthocyanin content in sera, saliva, and tissue explants was evaluated by an HPLC-MS assay. The respective samples (sera, saliva or tissue homogenates) were dissolved in 90% solvent A (water plus 1% formic acid) and 10% solvent B (acetonitrile plus 1% formic acid) and then separated on a Symmetry C18 reversed-phase column and analyzed using a Waters 2695 gradient HPLC separation module equipped with a 996 photodiode-array (PDA) UV/visible absorbance detector (Milford, Mass.). The solvent system consisted of a step gradient from 90% A to 50% B over 15 minutes, and the absorption spectra were recorded from 200-800 nm with the inline PDA detector. Mass spectrometry was conducted on a quadrupole ion tunnel mass spectrometer equipped with a Z-spray ESI source. Explant protein levels were determined by the Lowry method, using bovine γ-globulin as the standard protein [Lippman et al., 1993]. Tissue explants, specifically human oral mucosal explants, were used to determine the in vitro effects of FBR content and pH on anthocyanin uptake. Human oral tissues for the tissue explant studies were obtained from consenting volunteers who were undergoing elective oral surgery procedures. To confirm “no pathologic diagnosis”, a portion of each of these tissues was submitted for light microscopic evaluation. […] Tissues for explant experiments were immediately placed in an artificial saliva transport medium, which also served as the incubation medium for the gel absorption studies. The composition of the artificial saliva used for tissue transport and incubation was (final concentrations): sodium carboxymethylcellulose (0.5%), sorbitol (165 mM), NaCl (14 mM), KCl (16 mM), calcium chloride dehydrate (1.0 mM), MgCl2 (0.63 mM), Trizma hydrochloride (2.0 mM). Tissues from eight donors were used for preliminary studies to compare the penetration of anthocyanins from the 5% berry gel and the 10% FBR gel, both at a final pH of 6.5. In order to account for heterogeneity among human donors, tissue samples were hemisected. One tissue portion treated with 5% and the other with 10% FBR gels. One gram of gel (containing either 5% or 10% w/w FBR) was placed on the epithelial surface of the explant, followed by gently rubbing of the site for 30 seconds to facilitate uptake. Explants were then placed into artificial saliva, incubated for 30 minutes (37° C., 5% CO2), and then frozen at −80° C. until HPLC-mass spectroscopy analyses as previously reported [Rodrigo et al., in press]. Tissue preparation for HPLC analyses consisted of homogenization of the entire oral mucosal specimen, removal of an aliquot for sample protein level determination, followed by the addition of collagenase type II (0.1 mg/mL, GIBCO, Grand Island, N.Y.) and 1% formic acid. Samples were then placed on a Sep Pack (Millipore, Billerica, Mass.), eluted with methanol, and dried under argon gas. Additional oral mucosal explant studies were conducted to compare the effect of FBR gel pH on absorption into oral mucosal explants. Tissues from eleven donors were used for these studies, and handling was as described above with the exception that all gels contained 10% w/w FBR and were formulated at a final pH of 3.5 or 6.5. […] Large differences (up to 15-fold) in detectable anthocyanin levels were found in the gel treated donor tissues; findings that likely reflect the extensive heterogeneity within human tissues that affects tissue penetrative abilities.

[2] = Human pharmacokinetic study: anthocyanins in saliva and peripheral blood after topical gel application; type: in vivo; details: for Anthocyanin concentration in saliva / Anthocyanin concentration in peripheral blood: 1.0 g 5% FBR Gel, pH 6.5 topical to floor of mouth; for Anthocyanin concentration in saliva: saliva collected 2-5 min after application; for Anthocyanin concentration in peripheral blood: blood drawn five minutes after application
Protocol: Anthocyanin content in sera, saliva, and tissue explants was evaluated by an HPLC-MS assay. The respective samples (sera, saliva or tissue homogenates) were dissolved in 90% solvent A (water plus 1% formic acid) and 10% solvent B (acetonitrile plus 1% formic acid) and then separated on a Symmetry C18 reversed-phase column and analyzed using a Waters 2695 gradient HPLC separation module equipped with a 996 photodiode-array (PDA) UV/visible absorbance detector (Milford, Mass.). The solvent system consisted of a step gradient from 90% A to 50% B over 15 minutes, and the absorption spectra were recorded from 200-800 nm with the inline PDA detector. Mass spectrometry was conducted on a quadrupole ion tunnel mass spectrometer equipped with a Z-spray ESI source. Explant protein levels were determined by the Lowry method, using bovine γ-globulin as the standard protein [Lippman et al., 1993].
Next, evaluation of anthocyanin uptake into human oral mucosa from FBR gels prepared as described in Example 1 was undertaken. For in-vivo studies, participation of human subjects was conducted in accordance with an IRB approved protocol. […] For the phamacokinetic analyses, nine consenting adult volunteers dried the anterior floor of their mouth, placed 1.0 g of 5% berry gel (pH 6.5), and massaged the gel in place for 30 seconds to facilitate uptake. Two minutes after gel application saliva was collected for the next three minutes. Peripheral blood was drawn five minutes after gel application. Following clotting, sera samples were collected, and both the sera and saliva samples were stored at −80° C. until LC-MS analysis as described below.
All nine participants had detectable anthocyanin levels of three anthocyanins (cyanidin 3-rutinoside, cyanidin 3-xylosylrutinoside, cyanidin 3-glucoside) in either their saliva or blood, and 4 donors had detectable levels of two anthocyanins (cyanidin 3-rutinoside and cyanidin 3-xylosylrutinoside) in their peripheral blood. Saliva from eight of the nine donors contained detectable levels of either two (cyanidin 3-rutinoside and cyanidin 3-xylosylrutinoside-4 donors) or three anthocyanins (4 donors).

[3] = average of eleven explant samples

CC1OC(OCC2OC(Oc3cc4c(O)cc(O)cc4[o+]c3-c3ccc(O)c(O)c3)C(OC3OCC(O)C(O)C3O)C(O)C2O)C(O)C(O)C1O (stereo not drawn) [cyanidin 3-xylosylrutinoside]
Anthocyanin uptake, Gel pH 3.5, Avg. ± SEM [1, 3]: 5.4 pmol per mg tissue
Anthocyanin uptake, Gel pH 6.5, Avg. ± SEM [1, 3]: 17.4 pmol per mg tissue
% change 3.5 to 6.5, Avg. ± SEM ([1]; average of explant samples): 140.6%
% change 3.5 to 6.5 ([1]; explant sample 001): 522.5%
Anthocyanin uptake, Gel pH 3.5 ([1]; explant sample 001): 14.2 pmol per mg tissue
Anthocyanin uptake, Gel pH 6.5 ([1]; explant sample 001): 88.1 pmol per mg tissue
% change 3.5 to 6.5 ([1]; explant sample 002): 747.1%
Anthocyanin uptake, Gel pH 3.5 ([1]; explant sample 002): 1.2 pmol per mg tissue
Anthocyanin uptake, Gel pH 6.5 ([1]; explant sample 002): 10.3 pmol per mg tissue
% change 3.5 to 6.5 ([1]; explant sample 003): 12.1%
Anthocyanin uptake, Gel pH 3.5 ([1]; explant sample 003): 5.7 pmol per mg tissue
Anthocyanin uptake, Gel pH 6.5 ([1]; explant sample 003): 6.4 pmol per mg tissue
% change 3.5 to 6.5 ([1]; explant sample 004): −65.1%
Anthocyanin uptake, Gel pH 3.5 ([1]; explant sample 004): 3.6 pmol per mg tissue
Anthocyanin uptake, Gel pH 6.5 ([1]; explant sample 004): 1.3 pmol per mg tissue
% change 3.5 to 6.5 ([1]; explant sample 005): −45.9%
Anthocyanin uptake, Gel pH 3.5 ([1]; explant sample 005): 0.9 pmol per mg tissue
Anthocyanin uptake, Gel pH 6.5 ([1]; explant sample 005): 0.5 pmol per mg tissue
% change 3.5 to 6.5 ([1]; explant sample 006): 258.5%
Anthocyanin uptake, Gel pH 3.5 ([1]; explant sample 006): 9.9 pmol per mg tissue
Anthocyanin uptake, Gel pH 6.5 ([1]; explant sample 006): 35.5 pmol per mg tissue
% change 3.5 to 6.5 ([1]; explant sample 007): −9.4%
Anthocyanin uptake, Gel pH 3.5 ([1]; explant sample 007): 1.1 pmol per mg tissue
Anthocyanin uptake, Gel pH 6.5 ([1]; explant sample 007): 1.0 pmol per mg tissue
Anthocyanin uptake, Gel pH 3.5 ([1]; explant sample 008): 0.0 pmol per mg tissue
Anthocyanin uptake, Gel pH 6.5 ([1]; explant sample 008): 6.3 pmol per mg tissue
% change 3.5 to 6.5 ([1]; explant sample 009): 318.4%
Anthocyanin uptake, Gel pH 3.5 ([1]; explant sample 009): 9.9 pmol per mg tissue
Anthocyanin uptake, Gel pH 6.5 ([1]; explant sample 009): 41.3 pmol per mg tissue
% change 3.5 to 6.5 ([1]; explant sample 010): −91.9%
Anthocyanin uptake, Gel pH 3.5 ([1]; explant sample 010): 6.7 pmol per mg tissue
Anthocyanin uptake, Gel pH 6.5 ([1]; explant sample 010): 0.5 pmol per mg tissue
% change 3.5 to 6.5 ([1]; explant sample 011): −100%
Anthocyanin uptake, Gel pH 3.5 ([1]; explant sample 011): 6.0 pmol per mg tissue
Anthocyanin uptake, Gel pH 6.5 ([1]; explant sample 011): 0.00 pmol per mg tissue
number of donors with detectable levels in peripheral blood ([2]; of nine participants, 5% berry gel (pH 6.5), five minutes after application): 4 donors
Anthocyanin concentration in saliva ([2]; patient 101): 2.0 pmol/mL
Anthocyanin concentration in saliva ([2]; patient 102): 0.5 pmol/mL
Anthocyanin concentration in peripheral blood ([2]; patient 103): 0.6 pmol/mL
Anthocyanin concentration in saliva ([2]; patient 104): 1.5 pmol/mL
Anthocyanin concentration in peripheral blood ([2]; patient 105): 1.1 pmol/mL
Anthocyanin concentration in saliva ([2]; patient 105): 2.3 pmol/mL
Anthocyanin concentration in peripheral blood ([2]; patient 106): 0.8 pmol/mL
Anthocyanin concentration in saliva ([2]; patient 106): 1.9 pmol/mL
Anthocyanin concentration in peripheral blood ([2]; patient 107): 1.3 pmol/mL
Anthocyanin concentration in saliva ([2]; patient 107): 1.7 pmol/mL
Anthocyanin concentration in saliva ([2]; patient 108): 1.0 pmol/mL
Anthocyanin concentration in saliva ([2]; patient 109): 1.2 pmol/mL
